Results taken from article PMC12311259, “Antifibrotic effects of specific targeting of the 5‐hydroxytryptamine 2B receptor (5‐HT2BR) in murine models and ex vivo models of scleroderma skin” (Arthritis & Rheumatology (Hoboken, N.j.), 2025).

Experiments:
[1] = molecular target: T1, Serotonin (5-Hydroxytryptamine) 5-HT3 (hu) (Homo sapiens, UniProt P46098); assay: Receptor binding, Eurofins Panlabs 271910
T1 construct: Eurofins Panlabs 271910
Description: (§1) Effects were considered significant if AM1476's mean value was three or more SDs above the vehicle control mean in the agonist assay or three or more SDs below the positive control agonist (5‐nM α‐methylserotonin) mean in the antagonist assay. AM1476 was screened for selectivity against approximately 200 targets using a Eurofins Panlabs Spectrum screen panel including enzymatic and receptor binding assays.

[2] = molecular target: T2, Serotonin (5-Hydroxytryptamine) 5-HT6 (hu) (Homo sapiens, UniProt P50406); assay: Receptor binding, Eurofins Panlabs 272200
T2 construct: 318000 (adenylyl cyclase)
Description: as §1

[3] = molecular target: T3, Adrenergic β1 (hu) (Homo sapiens, UniProt P08588); assay: Functionality assay, Adenylyl Cyclase, Eurofins Panlabs 302230; type: cell-based
T3 construct: Eurofins Panlabs 302230
Description: as §1

T2 sequence (P50406 whole entry): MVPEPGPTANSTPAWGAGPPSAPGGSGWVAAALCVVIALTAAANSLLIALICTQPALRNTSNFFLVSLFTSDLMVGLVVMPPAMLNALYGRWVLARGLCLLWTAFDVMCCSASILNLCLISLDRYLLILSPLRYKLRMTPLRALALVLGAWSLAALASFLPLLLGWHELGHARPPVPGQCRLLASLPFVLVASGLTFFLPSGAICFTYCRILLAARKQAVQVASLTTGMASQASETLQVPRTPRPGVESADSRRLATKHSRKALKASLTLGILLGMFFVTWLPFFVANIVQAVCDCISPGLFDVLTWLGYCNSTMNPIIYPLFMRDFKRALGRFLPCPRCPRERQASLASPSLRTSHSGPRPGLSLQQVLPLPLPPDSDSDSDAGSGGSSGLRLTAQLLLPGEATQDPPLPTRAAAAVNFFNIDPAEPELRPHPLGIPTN
T3 sequence (P08588 whole entry): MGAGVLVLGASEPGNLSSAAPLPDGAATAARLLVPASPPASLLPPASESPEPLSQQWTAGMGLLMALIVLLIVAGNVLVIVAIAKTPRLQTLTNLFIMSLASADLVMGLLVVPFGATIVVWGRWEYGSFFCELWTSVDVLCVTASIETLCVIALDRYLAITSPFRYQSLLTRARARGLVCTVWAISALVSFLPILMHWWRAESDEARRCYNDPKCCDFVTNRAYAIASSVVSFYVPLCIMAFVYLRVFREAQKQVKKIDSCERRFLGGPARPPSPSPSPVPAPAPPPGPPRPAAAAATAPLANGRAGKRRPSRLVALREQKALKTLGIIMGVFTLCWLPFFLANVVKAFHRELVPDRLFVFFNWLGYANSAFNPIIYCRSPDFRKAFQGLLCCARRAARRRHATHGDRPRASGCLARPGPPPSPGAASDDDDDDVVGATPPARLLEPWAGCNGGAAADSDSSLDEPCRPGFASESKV
T1 sequence (P46098 24-478): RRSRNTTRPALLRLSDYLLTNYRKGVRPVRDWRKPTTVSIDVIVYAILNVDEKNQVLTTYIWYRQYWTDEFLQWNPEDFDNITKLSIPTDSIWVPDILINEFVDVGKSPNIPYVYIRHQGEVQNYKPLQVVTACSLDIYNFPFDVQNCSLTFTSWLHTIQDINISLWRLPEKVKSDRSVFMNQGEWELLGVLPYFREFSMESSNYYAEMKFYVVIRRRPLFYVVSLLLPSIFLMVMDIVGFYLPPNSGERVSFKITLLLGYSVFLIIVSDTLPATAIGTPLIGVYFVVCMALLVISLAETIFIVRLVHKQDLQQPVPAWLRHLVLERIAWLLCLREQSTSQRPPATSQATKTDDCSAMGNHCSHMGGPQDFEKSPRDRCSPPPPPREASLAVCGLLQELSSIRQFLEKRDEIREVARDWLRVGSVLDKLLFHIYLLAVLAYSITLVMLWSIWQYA

## C[C@@H]1CN(C(=N)N)N=C1c1ccc(F)cc1O [AM1476]
[1]
  % Inhibition at 10 µM, 5-HT3 (hu): 14%
[2]; 1 µM (value in brackets)
  % Inhibition at 1 µM, 5-HT6 (hu): 51%
[2]; 10 µM
  % Inhibition at 10 µM, 5-HT6 (hu): 90%
[3]
  IC50: 32.5 µM
[3]; at 300 µM
  agonistic activity, Adrenergic β1: No significant agonistic activity at 300 µM
